Where two headings read alike, the source gives them in different places.
Tests used:
activated p38α = activated p38α (Homo sapiens, UniProt Q16539); assay: Kinase assay (p38α, ATF2 substrate, ELISA read-out); assay type: biochemical
Experimental: At 37° C., microtiter plates were coated with 50 μl of ATF2 solution ([…]) for one hour. The plates were washed three times with water, and 50 μl of kinase mixture (50 mM tris-HCl, 10 mM MgCl2, 10 mM β-glycerol phosphate, 10 μg/ml BSA, 1 mM DTT, 100 μM ATP, 100 μM Na3VO4, 10 ng of activated p38α) with or without inhibitor were then added into the wells, and the plates were incubated at 37° C. for 1 hour. The plates were washed three times and then incubated at 37° C. with phosphorus-ATF-2 antibodies for one hour. Once more, the plates were washed three times, and goat-anti-rabbit IgG labeled with alkaline phosphatase was then added at 37° C. for one hour (to immobilize antibody-phosphorylated protein-substrate complex). After washing three times, the alkaline phosphatase-substrate solution (3 mM 4-NPP, 50 mM NaHCO3, 50 mM MgCl2, 100 μl/well) was added at 37° C. for 1.5 hours. The formation of 4-nitrophenolate was measured at 405 nm using a microtiter plate reader. The IC50 values were calculated.

IL-1β = assay: In vitro test of cytokine release, LPS-stimulated human whole blood / PBMCs: IL-1β; assay type: cell-based; conditions: PBMC, LPS stimulation, ELISA, read-out: Cytokines IC50 IL-1β
Experimental: The compounds or compositions according to the invention can be administered to mammals (man or animal) in a dose of from about 0.5 mg to 100 mg per kg of body weight per day. They may be administered in one individual dose or in a plurality of doses. The activity spectrum of the compounds as inhibitors of cytokine release was examined using the test systems below, as described by C. Donat and S. Laufer in Arch. Pharm. Pharm. Med. Chem. 333, Suppl. 1, 1-40, 2000.
In vitro Test with Human Whole Blood
The test substance is added to samples of human potassium-EDTA whole blood (of 400 μl each) and the samples are preincubated in a CO2 incubator (5% CO2; 95% moisture-saturated air) at 37° C. for 15 min. The samples are then stimulated with 1 μg/ml of LPS (E. coli 026:B6) at 37° C. in a CO2 incubator (5% CO2; 95% moisture-saturated air) for 4 hours. The reaction is stopped by placing the samples on ice, adding DPBS buffer and then centrifuging at 1000*g for 15 min. The amount of IL-1β and TNFα in the plasma supernatant is then determined by ELISA.
1) The mononuclear cells (PBMCs) from human potassium-EDTA whole blood, diluted 1:3, are isolated by density gradient centrifugation (Histopaque®-1.077). The cells are washed twice with DPBS buffer, resuspended in macrophage SFM medium and adjusted to a cell count of 1*10^6 cells/ml.
The resulting PBMCs suspension (samples of in each case 390 μl) and the test substance are preincubated at 37° C. in a CO2 incubator (5% CO2; 95% moisture-saturated air) for 15 min. The samples are then stimulated with in each case […] of LPS (E. coli 026:B6) at 37° C. in a CO2 incubator (5% CO2; 95% moisture-saturated air) for 4 hours. The reaction is stopped by placing the samples on ice, adding DPBS buffer and then centrifuging at 15 880*g for 12 min. The amount of IL-1β and TNFα in the plasma supernatant is then determined by ELISA.

[1] = Table 1, 100 μM ATP, 10 ng activated p38α, read-out: Kinase assay IC50

Sequence of activated p38α (Q16539 whole entry): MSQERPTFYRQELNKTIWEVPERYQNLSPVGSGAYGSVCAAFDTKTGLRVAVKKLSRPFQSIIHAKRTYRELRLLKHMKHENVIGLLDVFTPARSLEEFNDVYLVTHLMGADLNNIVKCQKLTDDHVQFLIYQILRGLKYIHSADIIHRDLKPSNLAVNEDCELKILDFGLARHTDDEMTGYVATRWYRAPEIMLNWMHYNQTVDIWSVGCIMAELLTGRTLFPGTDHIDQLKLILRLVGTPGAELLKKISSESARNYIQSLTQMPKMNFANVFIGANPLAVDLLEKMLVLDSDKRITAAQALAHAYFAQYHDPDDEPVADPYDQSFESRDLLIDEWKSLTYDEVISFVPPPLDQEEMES

| SMILES | IC50 (activated p38α; [1]) [nM] | further results |
| --- | --- | --- |
| O=C1c2ccccc2C(=O)N1CCCSc1nc(-c2ccc(F)cc2)c(-c2ccncc2)[nH]1 [Example 25d, 5-(4-Fluorophenyl)-4-(4-pyridinyl)imidazole-2-thio-3-propyl-N-phthalimide] | 5500 | IC50 (IL-1β): 920 nM |
| CC(=O)CSc1nc(-c2ccc(F)cc2)c(-c2ccncc2)n1C [Example 26, 1-[4-(4-Fluorophenyl)-1-methyl-5-pyridin-4-yl-1H-imidazol-2-ylsulfanyl]propan-2-one] | – | Kinase assay % at 10^−5 mol/l (activated p38α; Table 1): 37.0% at10^−5 mol/l; IC50 (IL-1β): 83 nM |
| CC(=O)C(Sc1nc(-c2ccc(F)cc2)c(-c2ccncc2)n1C)C(C)=O [Example 28, 3-[4-(4-Fluorophenyl)-1-methyl-5-pyridin-4-yl-1H-imidazol-2-ylsulfanyl]pentane-2,4-dione] | 9500 | – |
| CCOC(=O)C(Sc1nc(-c2ccc(F)cc2)c(-c2ccncc2)n1C)C(C)=O (centres unmarked) [Example 29, Ethyl 2-[4-(4-fluorophenyl)-1-methyl-5-pyridin-4-yl-1H-imidazol-2-ylsulfanyl]-3-oxobutanoate] | – | Kinase assay % at 10^−5 mol/l (activated p38α; Table 1): 13.8% at10^−5 mol/l |
| COC(=O)/C=C/CSc1nc(-c2ccc(F)cc2)c(-c2ccncc2)n1C [Example 31, Methyl 4-[4-(4-fluorophenyl)-1-methyl-5-pyridin-4-yl-1H-imidazol-2-ylsulfanyl]but-2-enoate] | 42000 | – |
| Cn1c(SCC(=O)N2CCCCC2)nc(-c2ccc(F)cc2)c1-c1ccncc1 [Example 33, 2-[4-(4-Fluorophenyl)-1-methyl-5-pyridin-4-yl-1H-imidazol-2-ylsulfanyl]-1-piperidin-1-ylethanone] | 75000 | – |
| Cn1c(SCC(=O)O)nc(-c2ccc(F)cc2)c1-c1ccncc1 [Example 36, 2-[4-(4-Fluorophenyl)-1-methyl-5-pyridin-4-yl-1H-imidazol-2-ylsulfanyl]acetic acid] | 1600 | – |
| CC(=O)CC(=O)CSc1nc(-c2ccc(F)cc2)c(-c2ccncc2)n1C [Example 38, 1-[4-(4-Fluorophenyl)-1-methyl-5-pyridin-4-yl-1H-imidazol-2-ylsulfanyl]pentane-2,4-dione] | – | Kinase assay % at 10^−6 mol/l (activated p38α; Table 1): 12.22% at10^−6 mol/l |
| Cn1c(SCCCC(=O)O)nc(-c2ccc(F)cc2)c1-c1ccncc1 [Example 39, 4-[4-(4-Fluorophenyl)-1-methyl-5-pyridin-4-yl-1H-imidazol-2-ylsulfanyl]butanoic acid] | 5000 | – |
| Cn1c(SCC(=O)N(CCO)CCO)nc(-c2ccc(F)cc2)c1-c1ccncc1 [Example 41, 2-[4-(4-Fluorophenyl)-1-methyl-5-pyridin-4-yl-1H-imidazol-2-ylsulfanyl]-N,N-bis(2-hydroxyethyl)acetamide] | 410 | – |
| Cn1c(SCC(=O)NCC(O)CO)nc(-c2ccc(F)cc2)c1-c1ccncc1 (centres unmarked) [Example 42, N-(2,3-Dihydroxypropyl)-2-[4-(4-fluorophenyl)-1-methyl-5-pyridin-4-yl-1H-imidazol-2-ylsulfanyl]acetamide] | – | Kinase assay % at 10^−4 mol/l (activated p38α; Table 1, at 10^−4 mol/l): 90.4% at10^−4 mol/l |
| Cn1c(SCCC(=O)N(CCO)CCO)nc(-c2ccc(F)cc2)c1-c1ccncc1 [Example 44, 3-[4-(4-Fluorophenyl)-1-methyl-5-pyridin-4-yl-1H-imidazol-2-ylsulfanyl]-N,N-bis(2-hydroxyethyl)propionamide] | 30000 | – |
| CCOC(=O)C(=O)CSc1nc(-c2ccc(F)cc2)c(-c2ccncc2)n1C [Example 45, Ethyl 3-[4-(4-fluorophenyl)-1-methyl-5-pyridin-4-yl-1H-imidazol-2-ylsulfanyl]-2-oxopropionate] | 7000 | – |
| Cn1c(SCCCCl)nc(-c2ccc(F)cc2)c1-c1ccncc1 [Example 47, 4-[2-(3-Chloropropylsulfanyl)-5-(4-fluorophenyl)-3-methyl-3H-imidazol-4-yl]pyridine] | 3400 | – |
| Cn1c(SCCN2C(=O)c3ccccc3C2=O)nc(-c2ccc(F)cc2)c1-c1ccncc1 [Example 48, 2-{2-[4-(4-Fluorophenyl)-1-methyl-5-pyridin-4-yl-1H-imidazol-2-ylsulfanyl]ethyl}isoindole-1,3-dione] | – | Kinase assay % at 10^−6 mol/l (activated p38α; Table 1): 30.9% at 10^−6 mol/l |
| Cn1c(SCC(O)CO)nc(-c2ccc(F)cc2)c1-c1ccncc1 (centres unmarked) [Example 57, 3-[4-(4-Fluorophenyl)-1-methyl-5-pyridin-4-yl-1H-imidazol-2-yl-sulfanyl]propan-1,2-diol] | – | IC50 (activated p38α; Table 2, read-out: p38α IC50): 3600 nM |
| CC(=O)Nc1cc(-c2c(-c3ccc(F)cc3)nc(SCC(O)CO)n2C)ccn1 (centres unmarked) [Example 67, N-{4-[2-(2,3-dihydroxypropanesulfanyl)-5-(4-fluorophenyl)-3-methyl-3H-imidazol-4-yl]pyridin-2-yl}acetamide] | – | inhibition at 1 µM (activated p38α; Table 2): 77%; IC50 (activated p38α; Table 2, read-out: p38α IC50): 430 nM |
| CC(=O)Nc1cc(-c2c(-c3ccc(F)cc3)nc(SCC(=O)N(CCO)CCO)n2C)ccn1 [Example 69, 2-[5-(2-Acetylaminopyridin-4-yl)-4-(4-fluorophenyl)-1-methyl-1H-imidazol-2-ylsulfanyl]-N,N-bis(2-hydroxyethyl)acetamide] | – | inhibition at 1 µM (activated p38α; Table 2): 90%; IC50 (activated p38α; Table 2, read-out: p38α IC50): 250 nM |
| CCOC(=O)CCSc1nc(-c2ccc(F)cc2)c(-c2ccnc(NC(C)=O)c2)n1C [Example 70, Ethyl 3-[5-(2-acetylaminopyridin-4-yl)-4-(4-fluorophenyl)-1-methyl-1H-imidazol-2-ylsulfanyl]propionate] | – | inhibition at 1 µM (activated p38α; Table 2): 83%; IC50 (activated p38α; Table 2, read-out: p38α IC50): 530 nM |
| Cn1c(SCC(=O)N(CCO)CCO)nc(-c2ccc(F)cc2)c1-c1ccnc(N)c1 [Example 71, 2-[5-(2-Aminopyridin-4-yl)-4-(4-fluorophenyl)-1-methyl-1H-imidazol-2-ylsulfanyl]-N,N-bis(2-hydroxyethyl)acetamide] | – | inhibition at 1 µM (activated p38α; Table 2): 76%; IC50 (activated p38α; Table 2, read-out: p38α IC50): 900 nM |
| Cn1c(SCCC(=O)O)nc(-c2ccc(F)cc2)c1-c1ccnc(N)c1 [Example 72, 3-[5-(2-Aminopyridin-4-yl)-4-(4-fluorophenyl)-1-methyl-1H-imidazol-2-ylsulfanyl]propionic acid] | – | inhibition at 1 µM (activated p38α; Table 2): 64% |

Continued, in another order:

| IC50 (activated p38α; [1]) [nM] | SMILES | further results |
| --- | --- | --- |
| 4800 | CCOC(=O)CC(=O)CSc1nc(-c2ccc(F)cc2)c(-c2ccncc2)n1C [Example 30, Ethyl 4-[4-(4-fluorophenyl)-1-methyl-5-pyridin-4-yl-1H-imidazol-2-ylsulfanyl]-3-oxobutanoate] | – |
| 90000 | Cn1c(SCC(=O)N2CCOCC2)nc(-c2ccc(F)cc2)c1-c1ccncc1 [Example 32, 2-[4-(4-Fluorophenyl)-1-methyl-5-pyridin-4-yl-1H-imidazol-2-ylsulfanyl]-1-morpholin-4-ylethanone] | – |
| 2000 | Cn1c(SCCC(=O)O)nc(-c2ccc(F)cc2)c1-c1ccncc1 [Example 37, 3-[4-(4-Fluorophenyl)-1-methyl-5-pyridin-4-yl-1H-imidazol-2-ylsulfanyl]propionic acid] | – |
| 800 | Cn1c(SCC(=O)NC(CO)(CO)CO)nc(-c2ccc(F)cc2)c1-c1ccncc1 [Example 40, 2-[4-(4-Fluorophenyl)-1-methyl-5-pyridin-4-yl-1H-imidazol-2-ylsulfanyl]-N-(2-hydroxy-1,1-bishydroxymethylethyl)acetamide] | – |
| 12000 | Cn1c(SCCC(=O)NC(CO)(CO)CO)nc(-c2ccc(F)cc2)c1-c1ccncc1 [Example 43, 3-[4-(4-Fluorophenyl)-1-methyl-5-pyridin-4-yl-1H-imidazol-2-ylsulfanyl]-N-(2-hydroxy-1,1-bishydroxymethylethyl)propionamide] | – |
| 2400 | Cn1c(SCCCN2C(=O)c3ccccc3C2=O)nc(-c2ccc(F)cc2)c1-c1ccncc1 [Example 49, 2-{3-[4-(4-Fluorophenyl)-1-methyl-5-pyridin-4-yl-1H-imidazol-2-ylsulfanyl]propyl}isoindole-1,3-dione] | – |
| 1800 | Cn1c(SCCN)nc(-c2ccc(F)cc2)c1-c1ccncc1 [Example 59, 2-[4-(4-Fluorophenyl)-1-methyl-5-pyridin-4-yl-1H-imidazol-2-ylsulfanyl]ethylamine] | – |
| 1400 | Cn1c(SCCCN)nc(-c2ccc(F)cc2)c1-c1ccncc1 [Example 60] | – |

Source: patent US7442713B2, “2-thio-substituted imidazole derivatives and their use in pharmaceutics” (Merckle GmbH, priority 2002, dated 2008)
